{
  "source": "paper PMC10348910",
  "about": "“Epigenetic reprogramming of cell cycle genes by ACK1 promotes breast cancer resistance to CDK4/6 inhibitor” (Oncogene, 2023)",
  "key": {"[1]": {"tested_on": "78 targets (cell surface receptors, ion channels, kinases, nuclear hormone receptors, GPCRs and other relevant enzymes)", "assay": "DiscoverX SAFETYscan pharmacological profiling (78 assays)", "from_the_text": "We performed pharmacological profiling of (R)-9b, to identify undesirable off-target activity profile using DiscoverX SAFETYscan, which has a broad menu containing 78 assays, and provides functional data for cell surface receptors, ion channels, kinases, nuclear hormone receptors, GPCRs and other relevant enzymes, inhibition of which could cause significant toxicity in human clinical trials."}, "[2]": {"tested_on": "pY88-H4 marks at CDC20, CCNB1 and CCNB2", "assay": "ChIP-qPCR with pY88-H4 antibody at CDC20, CCNB1 and CCNB2 loci", "assay_type": "cell-based", "details": "breast cancer cell lines", "protocol": "Fig. 4 ACK1 epigenetically modifies the chromatin landscape by depositing pY88-H4 activating marks, regulating cell cycle genes. A Breast cancer cell lines were treated with (R)-9b overnight and the cell lysates were subjected to immunoprecipitation using pY88-H4 antibody, followed by immunoblotting with H4 antibody. Lysates were also subjected to immunoblotting with total H4 and Actin antibodies, shown in the lower panels. […] B Venn diagrams summarizing the overlap between sites bound by pY88-H4 in vehicle treated and (R)-9b treated MDA-MB-453 cells. […] Breast cancer cells were subjected to ChIP using pY88-H4 antibody followed by qPCR for (D) CCNB1, (E) CCNB2, and (F) CDC20 genes. […]\nCell pellets were resuspended in RLB buffer and sonicated and the soluble chromatin was incubated with antibodies and Protein-G/A magnetic beads. […] The size and quality of the library was evaluated using the Agilent BioAnalyzer (Agilent Technologies, Inc., Santa Clara, CA), and the library was quantitated with the Kapa Library Quantification Kit. Each enriched DNA library was then sequenced on an Illumina NextSeq 500 sequencer to generate 40–50 million 75-base paired-end reads (Illumina, Inc., San Diego, CA). […]\nReal-time quantitative PCR analyses were performed using the ABI PRISM 7900HT Sequence Detection System (Applied Biosystems) as described earlier. […]"}, "[3]": {"tested_on": "MCF7, SKBR3, HCC-1395 and MDA-MB-453", "assay": "apoptosis assay, Annexin V-FITC/PI flow cytometry", "assay_type": "cell-based", "details": "0.25, 0.5, 1 µM", "protocol": "For proliferation assay, 5 × 10^4 cells were plated in 6-well plate and treated with either vehicle (DMSO) or varying concentrations of (R)-9b or palbociclib in complete media for 96 h and number of viable cells were counted by trypan blue exclusion assay. Breast cancer cell lines were treated with vehicle or varying concentrations of (R)-9b for 72 h. The cells were harvested, washed 2 times with PBS and incubated with 3 ul of Annexin V-FITC antibody according to the manufacturers protocol (BD Biosciences). Five µl Propidium iodide was used to stain necrotic cells. The cells were acquired using the BD FACSCalibur machine (BD Biosciences) and data was analyzed using FlowJo software. Cell cycle analysis was performed as mentioned earlier. Briefly, vehicle or (R)-9b (48 h) treated cells were harvested by trypsinization, washed 2 times with PBS, and fixed using chilled 70% Ethanol for 1 h, followed by 2 washes with PBS. […] The data were analyzed using FlowJo software. […]\n(A) MCF7, SKBR3, HCC-1395 and MDA-MB-453 cells were treated with 0.25µM, 0.5µM and 1 µM (R)-9b for 96h. […] Quantification of the live, early apoptotic, late apoptotic and necrotic cells is represented using stacked columns. […]"}, "[4]": {"tested_on": "pY88-H4", "assay": "immunoprecipitation and immunoblotting for pY88-H4", "assay_type": "cell-based", "details": "breast cancer cell lines; overnight", "protocol": "Fig. 4 ACK1 epigenetically modifies the chromatin landscape by depositing pY88-H4 activating marks, regulating cell cycle genes. A Breast cancer cell lines were treated with (R)-9b overnight and the cell lysates were subjected to immunoprecipitation using pY88-H4 antibody, followed by immunoblotting with H4 antibody. Lysates were also subjected to immunoblotting with total H4 and Actin antibodies, shown in the lower panels. […] B Venn diagrams summarizing the overlap between sites bound by pY88-H4 in vehicle treated and (R)-9b treated MDA-MB-453 cells. […] Breast cancer cells were subjected to ChIP using pY88-H4 antibody followed by qPCR for (D) CCNB1, (E) CCNB2, and (F) CDC20 genes. For (A), representative images of three independent experiments are shown. For (D–F), data are represented as the mean ± SEM. *p < 0.05, **p < 0.01, ***p < 0.001, unpaired two-tailed Student’s t test.\nVehicle or (R)-9b (5 µM, overnight in serum free media) treated cells were lysed by sonication in receptor lysis buffer (RLB) and lysates were fractionated by SDS-PAGE, and transferred onto a PVDF membrane (Immobilon). […]"}, "[5]": {"tested_on": "phospho-serine 139-γH2AX", "assay": "γH2AX immunocytochemistry", "assay_type": "cell-based", "details": "breast cancer cell lines, 48h", "protocol": "Breast cancer cells were grown over coverslips and treated with vehicle or (R)-9b. The cells were fixed in 2% paraformaldehyde and permeabilized. The cells were stained with phospho-serine 139-γH2AX antibody (Red), phalloidin (green) and DAPI. Fluorescent microscopic images were captured. […]\nbreaks in breast cancer cell lines\nBreast cancer cell lines were treated with either vehicle or (R)-9b for 48h and stained with phospho-serine 139-γH2AX antibody (Red), phalloidin (green) and DAPI. Representative images of fluorescent microscopic analysis are shown."}},
  "data": [
    {"molecule": "CN1CCN(c2ccc(Nc3ncc(Cl)c(NC[C@H]4CCCO4)n3)cc2)CC1", "note": "[(R)-9b]", "values": [
      {"measurement": "off-target inhibition in SAFETYscan", "setting": "[1]", "result": "None of the 78 targets were inhibited significantly"},
      {"measurement": "pY88-H4 marks at CDC20, CCNB1 and CCNB2 gene loci (ChIP-qPCR)", "setting": "[2]", "result": "significantly compromised"},
      {"measurement": "number of cells undergoing apoptosis", "setting": "[3]", "result": "marked increase"},
      {"measurement": "pY88-H4 epigenetic marks (immunoblot)", "setting": "[4]", "result": "significantly compromised"},
      {"measurement": "γH2AX staining (DNA damage, double strand breaks)", "setting": "[5]", "result": "poor γH2AX staining"}
    ]}
  ]
}
